From PMC2923275 (Biochemical pharmacology, 2010) come the findings set out here.

Data set [1] concerns wild type (RH) strain of T. gondii. Description: Anti-toxoplasmic activity in tissue culture. Type of data set: cell-based, Toxoplasma gondii. The following applies: wild type (RH) in human fibroblasts.
Data set [2] concerns adenosine kinase deficient (TgAK^-3) strain of T. gondii. Description: Anti-toxoplasmic activity in tissue culture. The note with it: TgAK^-3 in human fibroblasts. Type of data set: cell-based, Toxoplasma gondii.
The subject of data set [3] is uninfected human foreskin fibroblasts. Description: Host toxicity, MTT assay on uninfected host cells. The note with it: infection: None. In general terms: Formazan colour is commonly taken as a measure of viable cells.

For the compound `OCC1CC(n2cnc3c(SCc4ccccc4F)ncnc32)C(O)C1O` (stereo not shown) [Compound 2, Carbocyclic 6-(o-fluorobenzylthio)inosine], the “percent survival of parasite” value in data set [1] (5 μM compound) stood at 98.6%; in data set [1] (10 μM compound), 93.7%; in data set [1] (25 μM compound), 39.2%; in data set [1] (50 μM compound), 12.7%; in data set [2] (5 μM compound) it was 100%; in data set [2] (10 μM compound), 100%. The “percent survival of parasite” value in data set [2] (25 μM compound) and in data set [2] (50 μM compound) was 100% each time. Further, the “host-toxicity (survival of uninfected host cells)” value (“host-toxicity” below) stood at 100% in data set [3] (5 μM compound), 100% in data set [3] (10 μM compound), 100% in data set [3] (25 μM compound) and 85.8% in data set [3] (50 μM compound).
Turning to `OCC1CC(n2cnc3c(SCc4ccccc4Cl)ncnc32)C(O)C1O` (stereo not shown) [Compound 3, Carbocyclic 6-(o-chlorobenzylthio)inosine], the “percent survival of parasite” value is 79.5% in data set [1] (5 μM compound); 48.8% in data set [1] (10 μM compound); 9.8% in data set [1] (25 μM compound); 2.2% in data set [1] (50 μM compound); 100% in data set [2] (5 μM compound); 100% in data set [2] (10 μM compound). Further, the “percent survival of parasite” value in data set [2] (25 μM compound) and in data set [2] (50 μM compound) was 100% throughout. For the same compound, the “host-toxicity” value in data set [3] (5 μM compound), in data set [3] (10 μM compound), in data set [3] (25 μM compound) and in data set [3] (50 μM compound) was 100% each time.
Take `Cc1ccccc1CSc1ncnc2c1ncn2C1CC(CO)C(O)C1O` (stereo not shown) [Compound 4, Carbocyclic 6-(o-methylbenzylthio)inosine]: the “percent survival of parasite” value in data set [1] (5 μM compound) is given as 82.7%; in data set [1] (10 μM compound), 45.4%; in data set [1] (25 μM compound), 7.6%; in data set [1] (50 μM compound) it was 0.0%; in data set [2] (5 μM compound), 100%; in data set [2] (10 μM compound) it was 100%. Also, the “percent survival of parasite” value in data set [2] (25 μM compound) and in data set [2] (50 μM compound) was 100% throughout. For the same compound, the “host-toxicity” value in data set [3] (5 μM compound) was 100%; in data set [3] (10 μM compound) it was 100%; in data set [3] (25 μM compound), 100%; in data set [3] (50 μM compound), 99.2%.
As for `Cc1cccc(CSc2ncnc3c2ncn3C2CC(CO)C(O)C2O)c1` (stereo not shown) [Compound 5, Carbocyclic 6-(m-methylbenzylthio)inosine], the “percent survival of parasite” value in data set [1] (5 μM compound) was found to be 88.3%; in data set [1] (10 μM compound), 64.7%; in data set [1] (25 μM compound) it was 13.7%; in data set [1] (50 μM compound) it was 1.2%; in data set [2] (5 μM compound), 100%; in data set [2] (10 μM compound) it was 100%. Besides, the “percent survival of parasite” value in data set [2] (25 μM compound) and in data set [2] (50 μM compound) was 100% in each case. Further, the “host-toxicity” value in data set [3] (5 μM compound) was determined as 100%; in data set [3] (10 μM compound), 100%; in data set [3] (25 μM compound) it was 100%; in data set [3] (50 μM compound) it was 96.1%.
As to `OCC1CC(n2cnc3c(SCc4cccc(C(F)(F)F)c4)ncnc32)C(O)C1O` (stereo not shown) [Compound 6, Carbocyclic 6-(m-trifluoromethylbenzylthio)inosine], the “percent survival of parasite” value in data set [1] (5 μM compound) worked out at 79.0%; in data set [1] (10 μM compound) it was 47.1%; in data set [1] (25 μM compound) it was 6.3%; in data set [1] (50 μM compound), 1.0%; in data set [2] (5 μM compound), 100%; in data set [2] (10 μM compound), 100%. Also, the “percent survival of parasite” value in data set [2] (25 μM compound) and in data set [2] (50 μM compound) was 100% throughout. Further, the “host-toxicity” value in data set [3] (5 μM compound) is given as 100%; in data set [3] (10 μM compound), 100%; in data set [3] (25 μM compound), 100%; in data set [3] (50 μM compound), 90.6%.
Consider `O=[N+]([O-])c1cccc(CSc2ncnc3c2ncn3C2CC(CO)C(O)C2O)c1` (stereo not shown) [Compound 7, Carbocyclic 6-(m-nitrobenzylthio)inosine], for which the “percent survival of parasite” value amounted to 84.4% in data set [1] (5 μM compound); 50.9% in data set [1] (10 μM compound); 4.2% in data set [1] (25 μM compound); 0.0% in data set [1] (50 μM compound); 100% in data set [2] (5 μM compound); 100% in data set [2] (10 μM compound). For the same compound, the “percent survival of parasite” value in data set [2] (25 μM compound) and in data set [2] (50 μM compound) was 100% in each case. Further, the “host-toxicity” value in data set [3] (5 μM compound), in data set [3] (10 μM compound), in data set [3] (25 μM compound) and in data set [3] (50 μM compound) was 100% throughout.
Take `OCC1CC(n2cnc3c(SCc4ccc(Cl)cc4)ncnc32)C(O)C1O` (stereo not shown) [Compound 9, Carbocyclic 6-(p-chlorobenzylthio)inosine]: the “percent survival of parasite” value is given as 72.9% in data set [1] (5 μM compound); 11.9% in data set [1] (10 μM compound); 0.0% in data set [1] (25 μM compound); 0.0% in data set [1] (50 μM compound); 100% in data set [2] (5 μM compound); 100% in data set [2] (10 μM compound). The “percent survival of parasite” value in data set [2] (25 μM compound) and in data set [2] (50 μM compound) was 100% in each case. The “host-toxicity” value in data set [3] (5 μM compound), in data set [3] (10 μM compound), in data set [3] (25 μM compound) and in data set [3] (50 μM compound) was 100% each time.
In the case of `OCC1CC(n2cnc3c(SCc4ccc(Br)cc4)ncnc32)C(O)C1O` (stereo not shown) [Compound 10, Carbocyclic 6-(p-bromobenzylthio)inosine], the “percent survival of parasite” value in data set [1] (5 μM compound) amounted to 77.1%; in data set [1] (10 μM compound), 47.3%; in data set [1] (25 μM compound) it was 1.2%; in data set [1] (50 μM compound), 1.0%; in data set [2] (5 μM compound) it was 100%; in data set [2] (10 μM compound) it was 100%. Further, the “percent survival of parasite” value in data set [2] (25 μM compound) and in data set [2] (50 μM compound) was 100% throughout. Besides, the “host-toxicity” value in data set [3] (5 μM compound), in data set [3] (10 μM compound), in data set [3] (25 μM compound) and in data set [3] (50 μM compound) was 100% in each case.
Turning to `O=[N+]([O-])c1ccc(CSc2ncnc3c2ncn3C2CC(CO)C(O)C2O)cc1` (stereo not shown) [Compound 12, Carbocyclic 6-(p-nitrobenzylthio)inosine], the “percent survival of parasite” value is 100% in data set [1] (5 μM compound); 97.6% in data set [1] (10 μM compound); 44.2% in data set [1] (25 μM compound); 16.8% in data set [1] (50 μM compound); 100% in data set [2] (5 μM compound); 100% in data set [2] (10 μM compound). For the same compound, the “percent survival of parasite” value in data set [2] (25 μM compound) and in data set [2] (50 μM compound) was 100% in each case. Besides, the “host-toxicity” value in data set [3] (5 μM compound), in data set [3] (10 μM compound), in data set [3] (25 μM compound) and in data set [3] (50 μM compound) was 100% throughout.
`N#Cc1ccc(CSc2ncnc3c2ncn3C2CC(CO)C(O)C2O)cc1` (stereo not shown) [Compound 13, Carbocyclic 6-(p-cyanobenzylthio)inosine]: the “percent survival of parasite” value in data set [1] (5 μM compound) is given as 100%; in data set [1] (10 μM compound) it was 100%; in data set [1] (25 μM compound), 48.8%; in data set [1] (50 μM compound), 17.8%; in data set [2] (5 μM compound), 100%; in data set [2] (10 μM compound), 100%. In addition, the “percent survival of parasite” value in data set [2] (25 μM compound) and in data set [2] (50 μM compound) was 100% each time. Further, the “host-toxicity” value in data set [3] (5 μM compound), in data set [3] (10 μM compound), in data set [3] (25 μM compound) and in data set [3] (50 μM compound) was 100% throughout.
Take `Nc1ccc(S(=O)(=O)Nc2ncccn2)cc1` [Compound 23, Sulfadiazine, reference compound]: the “percent survival of parasite” value came out at 92.9% in data set [1] (5 μM compound), 58.0% in data set [1] (10 μM compound), 53.4% in data set [1] (25 μM compound) and 46.3% in data set [1] (50 μM compound). For the same compound, the “host-toxicity” value in data set [3] (5 μM compound) is 98.2%; in data set [3] (10 μM compound) it was 99.8%; in data set [3] (25 μM compound) it was 99.8%; in data set [3] (50 μM compound), 102%.
Turning to `CCc1nc(N)nc(N)c1-c1ccc(Cl)cc1` [Compound 24, Pyrimethamine, reference compound], the “percent survival of parasite” value came out at 98.9% in data set [1] (5 μM compound), 55.3% in data set [1] (10 μM compound), 25.1% in data set [1] (25 μM compound) and 23.2% in data set [1] (50 μM compound). In addition, the “host-toxicity” value in data set [3] (5 μM compound) was 101%; in data set [3] (10 μM compound), 100%; in data set [3] (25 μM compound), 108%; in data set [3] (50 μM compound) it was 108%.
